From US9695155B2, “Herbicidal substituted pyrimidinyloxy benzene compounds” (E. I. DU PONT DE NEMOURS AND COMPANY, priority 2013, dated 2017)

What was measured:
corn = assay: Test E preemergence; type: in vivo, Zea mays; conditions: for Corn plant response rating: scale 0 to 100 (0 no effect, 100 complete control); for Plant response rating, Corn: scale 0 to 100, 0 no effect, 100 complete control
From the text: (§1) Seeds of plant species selected from corn (Zea mays), soybean (Glycine max), velvetleaf (Abutilon theophrasti), lambsquarters (Chenopodium album), wild poinsettia (Euphorbia heterophylla), palmer pigweed (Amaranthus palmeri), waterhemp (common waterhemp, Amaranthus rudis), surinam grass (Brachiaria decumbens), large (Lg) crabgrass (Digitaria sanguinalis), Brazilian crabgrass (Digitaria horizontalis), fall panicum (Panicum dichotomiflorum), giant foxtail (Setaria faberii), green foxtail (Setaria viridis), goosegrass (Eleusine indica), johnsongrass (Sorghum halepense), ragweed (common ragweed, Ambrosia elatior), barnyardgrass (Echinochloa crus-galli), sandbur (southern sandbur, Cenchrus echinatus), arrowleaf sida (Sida rhombifolia), Italian ryegrass (Lolium multiflorum), dayflower (Virginia (VA) dayflower, Commelina virginica), field bindweed (Convolvulus arvensis), morningglory (Ipomoea coccinea), nightshade (eastern black nightshade, Solanum ptycanthum), kochia (Kochia scoparia), yellow nutsedge (Cyperus esculentus), cocklebur (common cocklebur, Xanthium strumarium), smartweed (ladysthumb smartweed, and hairy beggarticks (Bidens pilosa), were planted into a silt loam soil and treated preemergence with test chemicals formulated in a non-phytotoxic solvent mixture which included a surfactant.
(§2) At the same time, plants from these crop and weed species and also horseweed (Canada horseweed, Conyza canadensis), waterhemp_RES1, (ALS & Triazine resistant common waterhemp, Amaranthus rudis), and waterhemp_RES2, (ALS & HPPD resistant common waterhemp, Amaranthus rudis) were planted in pots containing Redi-Earth® planting medium (Scotts Company, 14111 Scottslawn Road, Marysville, Ohio 43041) comprising spaghnum peat moss, vermiculite, wetting agent and starter nutrients were treated with postemergence applications of test chemicals formulated in the same manner. Plants ranged in height from 2 to 18 cm for postemergence treatments (1- to 4-leaf stage). Treated plants and controls were maintained in a greenhouse for 14 to 21 days, after which time all species were compared to controls and visually evaluated. Plant response ratings, summarized in Table E, are based on a scale of 0 to 100 where 0 is no effect and 100 is complete control. A dash (-) response means no test result.

morningglory = assay: Test E preemergence; type: in vivo, Ipomoea coccinea; conditions: for Morningglory plant response rating: scale 0 to 100 (0 no effect, 100 complete control); for Plant response rating, Morningglory: scale 0 to 100, 0 no effect, 100 complete control
From the text: as §1, §2

waterhemp = assay: Test E preemergence; type: in vivo, Amaranthus rudis; conditions: for Waterhemp plant response rating: scale 0 to 100 (0 no effect, 100 complete control); for Plant response rating, Waterhemp: scale 0 to 100, 0 no effect, 100 complete control
From the text: as §1, §2

giant foxtail = assay: Test E preemergence; type: in vivo, Setaria faberii; conditions: for Foxtail, Giant plant response rating: scale 0 to 100 (0 no effect, 100 complete control); for Plant response rating, Foxtail, Giant: scale 0 to 100, 0 no effect, 100 complete control
From the text: as §1, §2

soybean = assay: Test E preemergence; type: in vivo, Glycine max; conditions: for Soybean plant response rating: scale 0 to 100 (0 no effect, 100 complete control); for Plant response rating, Soybean: scale 0 to 100, 0 no effect, 100 complete control
From the text: as §1, §2

Italian ryegrass = assay: Test E preemergence; type: in vivo, Lolium multiflorum; conditions: for Ryegrass, Italian plant response rating: scale 0 to 100 (0 no effect, 100 complete control); for Plant response rating, Ryegrass, Italian: scale 0 to 100, 0 no effect, 100 complete control
From the text: as §1, §2

goosegrass = assay: Test E preemergence; type: in vivo, Eleusine indica; conditions: for Goosegrass plant response rating: scale 0 to 100 (0 no effect, 100 complete control); for Plant response rating, Goosegrass: scale 0 to 100, 0 no effect, 100 complete control
From the text: as §1, §2

fall panicum = assay: Test E preemergence; type: in vivo, Panicum dichotomiflorum; conditions: for Panicum, Fall plant response rating: scale 0 to 100 (0 no effect, 100 complete control); for Plant response rating, Panicum, Fall: scale 0 to 100, 0 no effect, 100 complete control
From the text: as §1, §2

sandbur = assay: Test E preemergence; type: in vivo, Cenchrus echinatus; conditions: for Sandbur plant response rating: scale 0 to 100 (0 no effect, 100 complete control); for Plant response rating, Sandbur: scale 0 to 100, 0 no effect, 100 complete control
From the text: as §1, §2

lambsquarters = assay: Test E preemergence; type: in vivo, Chenopodium album; conditions: for Lambsquarters plant response rating: scale 0 to 100 (0 no effect, 100 complete control); for Plant response rating, Lambsquarters: scale 0 to 100, 0 no effect, 100 complete control
From the text: as §1, §2

surinam grass = assay: Test E preemergence; type: in vivo, Brachiaria decumbens; conditions: for Surinam Grass plant response rating: scale 0 to 100 (0 no effect, 100 complete control); for Plant response rating, Surinam Grass: scale 0 to 100, 0 no effect, 100 complete control
From the text: as §1, §2

barnyardgrass = assay: Test C flooded paddy test; type: in vivo, Echinochloa crus-galli; conditions: Flood, scale 0 to 100 (0 no effect, 100 complete control), 13 to 15 days
Procedure, shortened: (§3)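 Visual injury ratings against untreated controls, taken 13 to 15 days after compound was added to paddy water standing 3 cm above the soil.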

ducksalad = assay: Test C flooded paddy test; type: in vivo, Heteranthera limosa; conditions: Flood, scale 0 to 100 (0 no effect, 100 complete control), 13 to 15 days
Procedure, shortened: as §3

FC(F)(F)c1cnn(-c2ccccc2Oc2ncc(Cl)cn2)c1 [Compound 16]
Corn plant response rating (corn; 16 g ai/ha): 0
Corn plant response rating (corn; 31 g ai/ha): 0
Corn plant response rating (corn; 62 g ai/ha): 0
Plant response rating, Corn (corn; 125 g ai/ha): 20
Plant response rating, Corn (corn; 250 g ai/ha): 25
Morningglory plant response rating (morningglory; 16 g ai/ha): 0
Morningglory plant response rating (morningglory; 31 g ai/ha): 0
Morningglory plant response rating (morningglory; 62 g ai/ha): 0
Plant response rating, Morningglory (morningglory; 125 g ai/ha): 25
Plant response rating, Morningglory (morningglory; 250 g ai/ha): 95
Waterhemp plant response rating (waterhemp; 16 g ai/ha): 100
Waterhemp plant response rating (waterhemp; 31 g ai/ha): 100
Waterhemp plant response rating (waterhemp; 62 g ai/ha): 100
Plant response rating, Waterhemp (waterhemp; 125 g ai/ha): 100
Plant response rating, Waterhemp (waterhemp; 250 g ai/ha): 100
Foxtail, Giant plant response rating (giant foxtail; 16 g ai/ha): 15
Foxtail, Giant plant response rating (giant foxtail; 31 g ai/ha): 20
Foxtail, Giant plant response rating (giant foxtail; 62 g ai/ha): 100
Plant response rating, Foxtail, Giant (giant foxtail; 125 g ai/ha): 100
Plant response rating, Foxtail, Giant (giant foxtail; 250 g ai/ha): 100
Soybean plant response rating (soybean; 16 g ai/ha): 0
Soybean plant response rating (soybean; 31 g ai/ha): 60
Soybean plant response rating (soybean; 62 g ai/ha): 60
Plant response rating, Soybean (soybean; 125 g ai/ha): 90
Plant response rating, Soybean (soybean; 250 g ai/ha): 95
Ryegrass, Italian plant response rating (Italian ryegrass; 16 g ai/ha): 0
Ryegrass, Italian plant response rating (Italian ryegrass; 31 g ai/ha): 0
Ryegrass, Italian plant response rating (Italian ryegrass; 62 g ai/ha): 15
Plant response rating, Ryegrass, Italian (Italian ryegrass; 125 g ai/ha): 40
Plant response rating, Ryegrass, Italian (Italian ryegrass; 250 g ai/ha): 75
Goosegrass plant response rating (goosegrass; 16 g ai/ha): 0
Goosegrass plant response rating (goosegrass; 31 g ai/ha): 35
Goosegrass plant response rating (goosegrass; 62 g ai/ha): 50
Plant response rating, Goosegrass (goosegrass; 125 g ai/ha): 75
Plant response rating, Goosegrass (goosegrass; 250 g ai/ha): 95
Panicum, Fall plant response rating (fall panicum; 16 g ai/ha): 0
Panicum, Fall plant response rating (fall panicum; 31 g ai/ha): 80
Panicum, Fall plant response rating (fall panicum; 62 g ai/ha): 100
Plant response rating, Panicum, Fall (fall panicum; 125 g ai/ha): 100
Plant response rating, Panicum, Fall (fall panicum; 250 g ai/ha): 100
Sandbur plant response rating (sandbur; 16 g ai/ha): 0
Sandbur plant response rating (sandbur; 31 g ai/ha): 20
Sandbur plant response rating (sandbur; 62 g ai/ha): 20
Plant response rating, Sandbur (sandbur; 125 g ai/ha): 70
Plant response rating, Sandbur (sandbur; 250 g ai/ha): 95
Lambsquarters plant response rating (lambsquarters; 16 g ai/ha): 50
Lambsquarters plant response rating (lambsquarters; 31 g ai/ha): 80
Lambsquarters plant response rating (lambsquarters; 62 g ai/ha): 98
Plant response rating, Lambsquarters (lambsquarters; 125 g ai/ha): 98
Plant response rating, Lambsquarters (lambsquarters; 250 g ai/ha): 98
Surinam Grass plant response rating (surinam grass; 16 g ai/ha): 0
Surinam Grass plant response rating (surinam grass; 31 g ai/ha): 0
Surinam Grass plant response rating (surinam grass; 62 g ai/ha): 0
Plant response rating, Surinam Grass (surinam grass; 125 g ai/ha): 30
Plant response rating, Surinam Grass (surinam grass; 250 g ai/ha): 50

FC(F)(F)c1cnn(-c2ccccc2Oc2ncc(Br)cn2)c1 [Compound 18, 5-bromo-2-[2-[4-(trifluoromethyl)-1H-pyrazol-1-yl]phenoxy]pyrimidine]
Corn plant response rating (corn; 16 g ai/ha): 0
Corn plant response rating (corn; 31 g ai/ha): 0
Corn plant response rating (corn; 62 g ai/ha): 0
Plant response rating, Corn (corn; 125 g ai/ha): 0
Plant response rating, Corn (corn; 250 g ai/ha): 0
Morningglory plant response rating (morningglory; 16 g ai/ha): 0
Morningglory plant response rating (morningglory; 31 g ai/ha): 0
Morningglory plant response rating (morningglory; 62 g ai/ha): 0
Plant response rating, Morningglory (morningglory; 125 g ai/ha): 0
Plant response rating, Morningglory (morningglory; 250 g ai/ha): 35
Waterhemp plant response rating (waterhemp; 16 g ai/ha): 100
Waterhemp plant response rating (waterhemp; 31 g ai/ha): 100
Waterhemp plant response rating (waterhemp; 62 g ai/ha): 100
Plant response rating, Waterhemp (waterhemp; 125 g ai/ha): 100
Plant response rating, Waterhemp (waterhemp; 250 g ai/ha): 100
Foxtail, Giant plant response rating (giant foxtail; 16 g ai/ha): 0
Foxtail, Giant plant response rating (giant foxtail; 31 g ai/ha): 15
Foxtail, Giant plant response rating (giant foxtail; 62 g ai/ha): 65
Plant response rating, Foxtail, Giant (giant foxtail; 125 g ai/ha): 95
Plant response rating, Foxtail, Giant (giant foxtail; 250 g ai/ha): 98
Soybean plant response rating (soybean; 16 g ai/ha): 0
Soybean plant response rating (soybean; 31 g ai/ha): 0
Soybean plant response rating (soybean; 62 g ai/ha): 60
Plant response rating, Soybean (soybean; 125 g ai/ha): 90
Plant response rating, Soybean (soybean; 250 g ai/ha): 90
Ryegrass, Italian plant response rating (Italian ryegrass; 16 g ai/ha): 0
Ryegrass, Italian plant response rating (Italian ryegrass; 31 g ai/ha): 0
Ryegrass, Italian plant response rating (Italian ryegrass; 62 g ai/ha): 0
Plant response rating, Ryegrass, Italian (Italian ryegrass; 125 g ai/ha): 20
Plant response rating, Ryegrass, Italian (Italian ryegrass; 250 g ai/ha): 35
Goosegrass plant response rating (goosegrass; 16 g ai/ha): 0
Goosegrass plant response rating (goosegrass; 31 g ai/ha): 0
Goosegrass plant response rating (goosegrass; 62 g ai/ha): 30
Plant response rating, Goosegrass (goosegrass; 125 g ai/ha): 90
Plant response rating, Goosegrass (goosegrass; 250 g ai/ha): 98
Panicum, Fall plant response rating (fall panicum; 16 g ai/ha): 0
Panicum, Fall plant response rating (fall panicum; 31 g ai/ha): 50
Panicum, Fall plant response rating (fall panicum; 62 g ai/ha): 70
Plant response rating, Panicum, Fall (fall panicum; 125 g ai/ha): 100
Plant response rating, Panicum, Fall (fall panicum; 250 g ai/ha): 100
Sandbur plant response rating (sandbur; 16 g ai/ha): 0
Sandbur plant response rating (sandbur; 31 g ai/ha): 0
Sandbur plant response rating (sandbur; 62 g ai/ha): 0
Plant response rating, Sandbur (sandbur; 125 g ai/ha): 5
Plant response rating, Sandbur (sandbur; 250 g ai/ha): 75
Plant response rating, Barnyardgrass (barnyardgrass; 31 g ai/ha): 0
Plant response rating, Barnyardgrass (barnyardgrass; 62 g ai/ha): 0
Plant response rating, Barnyardgrass (barnyardgrass; 125 g ai/ha): 10
Plant response rating, Barnyardgrass (barnyardgrass; 250 g ai/ha): 20
Lambsquarters plant response rating (lambsquarters; 16 g ai/ha): 80
Lambsquarters plant response rating (lambsquarters; 31 g ai/ha): 90
Lambsquarters plant response rating (lambsquarters; 62 g ai/ha): 98
Plant response rating, Lambsquarters (lambsquarters; 125 g ai/ha): 98
Plant response rating, Lambsquarters (lambsquarters; 250 g ai/ha): 98
Surinam Grass plant response rating (surinam grass; 16 g ai/ha): 0
Surinam Grass plant response rating (surinam grass; 31 g ai/ha): 0
Surinam Grass plant response rating (surinam grass; 62 g ai/ha): 0
Plant response rating, Surinam Grass (surinam grass; 125 g ai/ha): 0
Plant response rating, Surinam Grass (surinam grass; 250 g ai/ha): 20
Plant response rating, Ducksalad (ducksalad; 31 g ai/ha): 80
Plant response rating, Ducksalad (ducksalad; 62 g ai/ha): 80
Plant response rating, Ducksalad (ducksalad; 125 g ai/ha): 85
Plant response rating, Ducksalad (ducksalad; 250 g ai/ha): 90
